Results reported in US8192962B2, “Processes for detecting toxic substances” (Daikin Industries, Ltd., priority 2001, dated 2012).

Tested on: Genes belonging to other category
Assay: DNA chip mRNA expression in yeast, genes belonging to other category (Table 9)
Assay type: cell-based, Saccharomyces cerevisiae S288C
Procedure: Yeast (Saccharomyces cerevisiae S288C (α SUC2mal mel gap2 CUP1)) were incubated at 25° C. on YPD medium (yeast extract 1%, polypepton 2%, glucose 2%). One of toxic chemical substances was added to the cells at logarithmic growth phase, and the cells were further incubated for two hours. Cells were cultured without any chemical substance in the same condition, and were used as control. Concentrations of the chemical substances were defined to inhibit the growth of the yeast but not lead to death.
After completion of the incubation, the culture was centrifuged to collect the cells. To the cells, sodium acetate buffer (50 mM sodium acetate, 10 mM EDTA, 1% SDS) was added, and the mixture was shaken at 65° C. for five minutes, followed by returning to room temperature, and obtaining the supernatant, of which the procedures were repeated two times. To the supernatant, ½ amount of a solution of phenol/chloroform was added, and the mixture was centrifuged to give a supernatant, which was added with an equal amount of chloroform, and the mixture was centrifuged to give a supernatant. To the supernatant, an equal amount of isopropanol containing 0.3 M sodium acetate was added, and the mixture was allowed to stand at room temperature for 30 minutes, after which the mixture was centrifuged to give a sediment of the whole RNAs. Seventy % ethanol was added to the sediment, and the mixture was again centrifuged to give a sediment, which was then dried and dissolved in water. mRNA was isolated from the whole RNAs as followings. In view of the fact that a poly A chain is attached to the 3′ terminus of mRNA, a polynucleotide having a poly T structure which was immobilized on the surface of latex beads was used to trap the mRNA, and then the mRNA was washed and eluted with spine column (Oligotex-dT30<Super>mRNA Purification Kit, Takara). Reverse transcription of the mRNA was conducted with a reverse transcriptase (Super Script II Reverse Transcriptase; catalogue No. 18064-014, GibcoBRL) using fluorescence-labeled nucleotides to give cDNAs that were introduced with Cy3-dUTP or Cy5-dUTP during the reverse transcription.
The labeled cDNAs were dissolved in TE buffer (10mM Tris-HCl/1 mM EDTA, pH8.0), and the solution was dropped on the DNA chip containing the whole genes of yeast (DNA Chip Research Inc. Japan) so that the cDNAs were hybridized on the DNA chip at 65° C. for over 12 hours. The fluoresces intensity of the DNA chip was read with a scanner, and the ratio relative to the fluorescence intensity resulting from the absence of chemical substance was estimated as the following, which is shown in Tables 1 to 9: […]

[Cl][Hg][Cl] [(3), HgCl2]
The level of expressed mRNA in the presence of chemical substance/The level of expressed mRNA in the absence of chemical substance (yeast gene YKL008C): 2.0
The level of expressed mRNA in the presence of chemical substance/The level of expressed mRNA in the absence of chemical substance (yeast gene YKL013C): 1.4
The level of expressed mRNA in the presence of chemical substance/The level of expressed mRNA in the absence of chemical substance (yeast gene YKL039W): 2.4
The level of expressed mRNA in the presence of chemical substance/The level of expressed mRNA in the absence of chemical substance (yeast gene YKL096W): 8.1
The level of expressed mRNA in the presence of chemical substance/The level of expressed mRNA in the absence of chemical substance (yeast gene YKL165C): 1.1
The level of expressed mRNA in the presence of chemical substance/The level of expressed mRNA in the absence of chemical substance (yeast gene YKL193C): 1.1
The level of expressed mRNA in the presence of chemical substance/The level of expressed mRNA in the absence of chemical substance (yeast gene YLR120C): 2.4
The level of expressed mRNA in the presence of chemical substance/The level of expressed mRNA in the absence of chemical substance (yeast gene YLR136C): 0.6
The level of expressed mRNA in the presence of chemical substance/The level of expressed mRNA in the absence of chemical substance (yeast gene YLR178C): 8.8
The level of expressed mRNA in the presence of chemical substance/The level of expressed mRNA in the absence of chemical substance (yeast gene YLR250W): 1.0
The level of expressed mRNA in the presence of chemical substance/The level of expressed mRNA in the absence of chemical substance (yeast gene YLR327C): 14.4
The level of expressed mRNA in the presence of chemical substance/The level of expressed mRNA in the absence of chemical substance (yeast gene YLR356W): 4.9
The level of expressed mRNA in the presence of chemical substance/The level of expressed mRNA in the absence of chemical substance (yeast gene YLR362W): 1.0
The level of expressed mRNA in the presence of chemical substance/The level of expressed mRNA in the absence of chemical substance (yeast gene YLR391W): 2.9
The level of expressed mRNA in the presence of chemical substance/The level of expressed mRNA in the absence of chemical substance (yeast gene YLR429W): 0.6
The level of expressed mRNA in the presence of chemical substance/The level of expressed mRNA in the absence of chemical substance (yeast gene YMR004W): 1.3
The level of expressed mRNA in the presence of chemical substance/The level of expressed mRNA in the absence of chemical substance (yeast gene YMR094W): 1.3
The level of expressed mRNA in the presence of chemical substance/The level of expressed mRNA in the absence of chemical substance (yeast gene YMR104C): 2.2
The level of expressed mRNA in the presence of chemical substance/The level of expressed mRNA in the absence of chemical substance (yeast gene YMR219W): 1.0
The level of expressed mRNA in the presence of chemical substance/The level of expressed mRNA in the absence of chemical substance (yeast gene YMR226C): 1.4
The level of expressed mRNA in the presence of chemical substance/The level of expressed mRNA in the absence of chemical substance (yeast gene YMR275C): 1.2
The level of expressed mRNA in the presence of chemical substance/The level of expressed mRNA in the absence of chemical substance (yeast gene YMR276W): 1.5
The level of expressed mRNA in the presence of chemical substance/The level of expressed mRNA in the absence of chemical substance (yeast gene YMR314W): 0.9
The level of expressed mRNA in the presence of chemical substance/The level of expressed mRNA in the absence of chemical substance (yeast gene YNL006W): 1.3
The level of expressed mRNA in the presence of chemical substance/The level of expressed mRNA in the absence of chemical substance (yeast gene YNL007C): 5.1
The level of expressed mRNA in the presence of chemical substance/The level of expressed mRNA in the absence of chemical substance (yeast gene YNL093W): 0.4
The level of expressed mRNA in the presence of chemical substance/The level of expressed mRNA in the absence of chemical substance (yeast gene YNL333W): 1.7
The level of expressed mRNA in the presence of chemical substance/The level of expressed mRNA in the absence of chemical substance (yeast gene YNR010W): 0.5
The level of expressed mRNA in the presence of chemical substance/The level of expressed mRNA in the absence of chemical substance (yeast gene YNR069C): 0.7
The level of expressed mRNA in the presence of chemical substance/The level of expressed mRNA in the absence of chemical substance (yeast gene YOL013C): 1.0
The level of expressed mRNA in the presence of chemical substance/The level of expressed mRNA in the absence of chemical substance (yeast gene YOL164W): 1.0
The level of expressed mRNA in the presence of chemical substance/The level of expressed mRNA in the absence of chemical substance (yeast gene YOR036W): 1.4
The level of expressed mRNA in the presence of chemical substance/The level of expressed mRNA in the absence of chemical substance (yeast gene YOR117W): 1.7
The level of expressed mRNA in the presence of chemical substance/The level of expressed mRNA in the absence of chemical substance (yeast gene YOR124C): 1.3
The level of expressed mRNA in the presence of chemical substance/The level of expressed mRNA in the absence of chemical substance (yeast gene YOR132W): 0.8
The level of expressed mRNA in the presence of chemical substance/The level of expressed mRNA in the absence of chemical substance (yeast gene YOR157C): 1.2
The level of expressed mRNA in the presence of chemical substance/The level of expressed mRNA in the absence of chemical substance (yeast gene YOR181W): 1.1
The level of expressed mRNA in the presence of chemical substance/The level of expressed mRNA in the absence of chemical substance (yeast gene YOR185C): 1.9
The level of expressed mRNA in the presence of chemical substance/The level of expressed mRNA in the absence of chemical substance (yeast gene YOR198C): 1.4
The level of expressed mRNA in the presence of chemical substance/The level of expressed mRNA in the absence of chemical substance (yeast gene YOR259C): 0.8
The level of expressed mRNA in the presence of chemical substance/The level of expressed mRNA in the absence of chemical substance (yeast gene YOR261C): 0.6
The level of expressed mRNA in the presence of chemical substance/The level of expressed mRNA in the absence of chemical substance (yeast gene YOR288C): 1.1
The level of expressed mRNA in the presence of chemical substance/The level of expressed mRNA in the absence of chemical substance (yeast gene YOR355W): 1.1
The level of expressed mRNA in the presence of chemical substance/The level of expressed mRNA in the absence of chemical substance (yeast gene YOR383C): 2.6
The level of expressed mRNA in the presence of chemical substance/The level of expressed mRNA in the absence of chemical substance (yeast gene YPL089C): 0.5
The level of expressed mRNA in the presence of chemical substance/The level of expressed mRNA in the absence of chemical substance (yeast gene YPL109C): 0.5
The level of expressed mRNA in the presence of chemical substance/The level of expressed mRNA in the absence of chemical substance (yeast gene YPL149W): 0.6
The level of expressed mRNA in the presence of chemical substance/The level of expressed mRNA in the absence of chemical substance (yeast gene YPL154C): 4.2
The level of expressed mRNA in the presence of chemical substance/The level of expressed mRNA in the absence of chemical substance (yeast gene YPR103W): 1.3
The level of expressed mRNA in the presence of chemical substance/The level of expressed mRNA in the absence of chemical substance (yeast gene YPR108W): 1.3
